# Columns and labels:
# [1] = tested on: human colorectal cancer cell line Colo205 cells; experiment: Antitumor effect in transplantation model nude mouse with human colorectal cancer cell line Colo205 cells (Example 1); assay type: in vivo; settings: 14 days; for enhancement in antitumor effect (tumor volume) by combined use with Trametinib: combined with Trametinib 0.3 mg/kg p.o., formula (I) 12.5 or 25 mg/kg p.o., ICG001 100 mg/kg i.p., FIGS. 1-3
# Protocol: Human colorectal cancer-derived cell line Colo205 cells (supplied by ATCC) were suspended in Hanks' Balanced Salt Solution (HBSS) (manufactured by FUJIFILM Wako Chemicals) at 5× 10^7 cells/mL. 0.1 mL of the obtained cell suspension was transplanted subcutaneously to a right frank of 6-week nude mice (CAnN.Cg-Foxn1 nu/CrlCrlj, manufactured by Charles River Laboratories Japan, Inc.). Ten days after the transplantation, a major axis and a minor axis of a tumor generated in each mouse were measured with a digimatic caliper (manufactured by Mitutoyo Corp.), and the mice were divided into groups each including six mice such that an average tumor volume was approximately equal. The tumor volume was calculated according to the following formula.
# From ten days after the transplantation, the compound represented by formula (I) (12.5 mg/kg or 25 mg/kg, once a day, 14 days, orally administered), Trametinib (0.3 mg/kg, once a day, 14 days, orally administered), and ICG001 (100 mg/kg, once a day, 14 days, intraperitoneally administered) were administered singly or in combination to the mice in a single administration group or a combined administration group. Note that any one of the above agents was not administered to a control group.
# Note that, at the time of administration, the compound represented by formula (I) was dissolved in 0.1 M hydrochloric acid at 1.25 mg/mL or 2.50 mg/mL, Trametinib (manufactured by Amadis Chemical) was dissolved in distilled water (pH 8.0) (manufactured by Otsuka Pharmaceutical Co., Ltd.) containing 0.5 w/v % of hydroxypropyl methyl cellulose (manufactured by FUJIFILM Wako Chemicals) and 0.2 w/v % of Tween80 (manufactured by Sigma) at 0.03 mg/mL, and ICG001 (manufactured by WuXi App Tec) was dissolved in physiological saline (manufactured by Otsuka Pharmaceutical Co., Ltd.) containing 3.5 w/v % of dimethylsulfoxide (manufactured by Wako Pure Chemical Industries, Ltd.) and 6.5 w/v % of Tween80 at 10 mg/mL.
# The administration start day was defined as the first day, and a major axis and a minor axis of a tumor generated in each mouse were measured on the fifth day, the eighth day, the twelfth day, and the fifteenth day, and a tumor volume was calculated by a similar method to the above-described method. FIG. 1 illustrates a transition of the tumor volume in a case where 12.5 mg/kg of the compound represented by formula (I) and 0.3 mg/kg of Trametinib were administered singly or in combination. FIG. 2 illustrates a transition of the tumor volume in a case where 25.0 mg/kg of the compound represented by formula (I) and 0.3 mg/kg of Trametinib were administered singly or in combination. FIG. 3 illustrates a transition of the tumor volume in a case where 100 mg/kg of ICG001 and 0.3 mg/kg of Trametinib were administered singly or in combination. […]
# [2] = tested on: human colorectal cancer cell line HT-29 (BRAF V600E-mutant); settings: HT-29 subcutaneous mouse model, cited from earlier work
# [3] = tested on: patient-derived colorectal cancer organoid; settings: PDX model mouse, ICG001 + Trametinib; cited from earlier work
# [4] = tested on: human melanoma cell line A375 cells; experiment: Antitumor effect in transplantation model nude mouse with human melanoma cell line A375 cells (Example 5); assay type: in vivo; settings: p.o. once a day, 14 days
# Protocol: (§1) The tumor volume was calculated according to the following formula.
# [5] = tested on: human non-small cell lung cancer cell line NCI-H358 cells; experiment: Antitumor effect in transplantation model nude mouse with human non-small cell lung cancer cell line NCI-H358 cells (Example 4); assay type: in vivo; settings: p.o. once a day, 14 days
# Protocol: as §1
# [6] = tested on: human colorectal cancer cell line SW1463 cells; experiment: Antitumor effect in transplantation model nude mouse with human colorectal cancer cell line SW1463 cells (Example 2); assay type: in vivo; settings: formula (I) 25.0 mg/kg + Trametinib 0.3 mg/kg + Adagrasib 10 mg/kg, p.o. once a day, 14 days
# Protocol: as §1
# [7] = tested on: human colorectal cancer cell line Colo205 cells; experiment: Antitumor effect in transplantation model nude mouse with human colorectal cancer cell line Colo205 cells (Example 3); assay type: in vivo; settings: p.o. once a day, 14 days
# Protocol: as §1
# [8] = formula (I) 25 mg/kg + Trametinib 0.3 mg/kg, FIG. 13
# [9] = formula (I) 25.0 mg/kg + Trametinib 0.3 mg/kg + Adagrasib 3 mg/kg, FIG. 12
# [10] = formula (I) 25 mg/kg + Trametinib 0.3 mg/kg, FIG. 10
# [11] = formula (I) 25 mg/kg + Trametinib 0.3 mg/kg, FIG. 7
smiles,measurement,setting,value
O=C1[C@H](Cc2ccc(O)cc2)N2C(=O)CCN(C(=O)NCc3ccccc3)[C@H]2CN1Cc1cccc2ccccc12 [ICG001],enhancement in antitumor effect (tumor volume) by combined use with Trametinib,[1]; once a day,remarkable enhancement in antitumor effect was not observed
same,"antitumor effect, in combination with both Vemurafenib and Trametinib compared to the single administration",[2]; ICG001 + Vemurafenib + Trametinib,antitumor effect is enhanced
same,"antitumor effect, in combination with Vemurafenib compared to the single administration",[2]; ICG001 + Vemurafenib,antitumor effect is enhanced
same,"antitumor effect, in combination with Trametinib compared to the single administration",[3],antitumor effect is enhanced
"C=CCN1CC(=O)N2[C@@H](Cc3ccc(O)cc3F)C(=O)N(Cc3cccc(N4CC(N5CCN(CC)CC5)C4)n3)C[C@@H]2N1C(=O)NCc1ccccc1 [compound represented by formula (I), (6S,9aS)—N-benzyl-8-({6-[3-(4-ethylpiperazin-1-yl)azetidin-1-yl]pyridin-2-yl}methyl)-6-(2-fluoro-4-hydroxybenzyl)-4,7-dioxo-2-(prop-2-en-1-yl)hexahydro-2H-pyrazino[2,1-c][1,2,4]triazine-1(6H)-carboxamide]","tumor proliferation, three-agent combination with Trametinib and Dabrafenib compared with formula (I) singly or Trametinib + Dabrafenib","[4]; formula (I) 25.0 mg/kg + Trametinib 0.3 mg/kg + Dabrafenib 30 mg/kg, FIG. 14",inhibited tumor proliferation in a statistically significant manner
same,"tumor proliferation, three-agent combination with Trametinib and Dabrafenib compared with Dabrafenib singly or formula (I) + Trametinib","[4]; formula (I) 25.0 mg/kg + Trametinib 0.3 mg/kg + Dabrafenib 30 mg/kg, FIG. 15",inhibited tumor proliferation in a statistically significant manner
same,enhancement in antitumor effect (tumor volume) by combined use with Trametinib,[4]; [8],remarkable enhancement in antitumor effect
same,"tumor proliferation, combined use with Trametinib compared with formula (I) or Trametinib administered singly",[4]; [8],inhibited tumor proliferation in a statistically significant manner
same,enhancement in antitumor effect (tumor volume) by combined use with Trametinib,[1]; once a day,remarkable enhancement in antitumor effect
same,"tumor proliferation, combined use with Trametinib compared with formula (I) or Trametinib administered singly","[1]; formula (I) 12.5 or 25 mg/kg p.o. + Trametinib 0.3 mg/kg p.o., once a day, FIGS. 1 and 2",inhibited tumor proliferation in a statistically significant manner
same,"tumor proliferation, combined administration with Trametinib compared with combined administration of ICG001 and Trametinib","[1]; formula (I) 12.5 or 25 mg/kg p.o. + Trametinib 0.3 mg/kg vs ICG001 100 mg/kg i.p. + Trametinib 0.3 mg/kg, FIG. 4",inhibited tumor proliferation in a statistically significant manner
same,"tumor proliferation, three-agent combination with Trametinib and Adagrasib compared with formula (I) singly or Trametinib + Adagrasib","[5]; formula (I) 25.0 mg/kg + Trametinib 0.3 mg/kg + Adagrasib 3 mg/kg, FIG. 11",inhibited tumor proliferation in a statistically significant manner
same,"antitumor effect, three-agent combination with Trametinib and Adagrasib compared with two-agent formula (I) + Trametinib",[5]; [9],enhancement tendency
same,"tumor proliferation, three-agent combination with Trametinib and Adagrasib compared with Adagrasib singly",[5]; [9],inhibited tumor proliferation in a statistically significant manner
same,"antitumor effect, combined use with Trametinib compared with formula (I) or Trametinib administered singly",[5]; [10],tendency to enhance the antitumor effect
same,enhancement in antitumor effect (tumor volume) by combined use with Trametinib,[5]; [10],remarkable enhancement in antitumor effect
same,"tumor proliferation, three-agent combination with Trametinib and Adagrasib compared with formula (I) singly or Trametinib + Adagrasib",[6]; FIG. 5,inhibited tumor proliferation in a statistically significant manner
same,"tumor proliferation, three-agent combination with Trametinib and Adagrasib compared with Adagrasib singly or formula (I) + Trametinib",[6]; FIG. 6,inhibited tumor proliferation in a statistically significant manner
same,"tumor proliferation, three-agent combination with Trametinib and Dabrafenib compared with two-agent Trametinib + Dabrafenib","[7]; formula (I) 25.0 mg/kg + Trametinib 0.3 mg/kg + Dabrafenib 30 mg/kg, FIG. 8",inhibited tumor proliferation in a statistically significant manner
same,"tumor proliferation, three-agent combination with Trametinib and Dabrafenib compared with two-agent formula (I) + Trametinib","[7]; formula (I) 25.0 mg/kg + Trametinib 0.3 mg/kg + Dabrafenib 30 mg/kg, FIG. 9",inhibited tumor proliferation in a statistically significant manner
same,enhancement in antitumor effect (tumor volume) by combined use with Trametinib,[7]; [11],remarkable enhancement in antitumor effect
same,"tumor proliferation, combined use with Trametinib compared with formula (I) or Trametinib administered singly",[7]; [11],inhibited tumor proliferation in a statistically significant manner

# Source: US20260232679A1, “PHARMACEUTICAL COMPOSITION FOR TREATING TUMORS” (Eisai R&D Management Co., Ltd., priority 2023, published 2026)
